A value given as a limit tells only on which side of the number the result lay.

One assay addresses T1, human recombinant his-tagged HSP90α (Homo sapiens, UniProt P07900).
T1 construct: purchased Prospec Technogene #HSP90
As to the kind of experiment: HSP90 enzyme assay (HTRF, competition with biotinylated Geldanamycin). It counts as binding. As to conditions: IC50 range; read-out: Enzyme Assay. The source says: An HTRF (homogeneous time resolved fluorescence) assay is used to measure the interaction of the compounds with HSP90. The assay measures binding of biotinylated Geldanamycin (bio-GM; Biomol, #EI-341, lot: A9199a) to human recombinant his-tagged HSP90α (HSP90; Prospec Technogene, #HSP90, lot: 260HSP9001). A signal is generated by fluorescence resonance energy transfer from an Europium-cryptate labeled anti-his antibody (anti-his-K; Cisbio International, #61HISKLA, lot: 33V) via the HSP90-GM-biotin complex to a fluorescence acceptor (allophycocyanin) linked to streptavidin (SA-XL; Cisbio International, #610SAXLB, lot: 089).
Unlabeled GM or compounds compete with the bio-GM for binding to HSP90 resulting in reduced fluorescence energy transfer/assay signal.
A preformed (1 hour incubation) complex of HSP90 with the anti-his-K is added to the compound solution in a 384 well microplate (Corning, #3710) and incubated for 15 minutes. A preformed (1 hour incubation) complex of bio-GM with the SA-XL is added to the wells and incubated for 20 hours. All incubations are performed at room temperature. The final assay volume is 50 μl/well. The final concentrations in the assay are: 50 mM Hepes pH 7.3, 50 mM NaCl, 100 mM KF, 1 mM EDTA, 1 mM DTT, 0.1% Triton-X-100, […] HSP90, 40 nM SA-XL, 40 nM bio-GM. Test compounds are dissolved in DMSO, prediluted in assay buffer and tested at a final concentration between 5000 nM and 0.3 nM. The resulting DMSO concentration is 0.5% and included in all controls. High controls are without test compounds, low controls without test compounds, without HSP90 and without bio-GM. As a reference inhibitor unlabeled GM is used in the same concentrations as the test compounds.
Inhibition is calculated compared to the assay controls using an Excel spreadsheet (Microsoft). IC50 values are calculated by non-linear least squares fitting to the standard dose-response model using GraphPad Prism (GraphPad Software Inc).
On to `CC(C)C[C@H](NC1CCN(C(=O)c2cc(C(C)C)c(O)cc2O)CC1)C(=O)O` [Example 96, N-(1-{[2,4-dihydroxy-5-(propan-2-yl)phenyl]carbonyl}piperidin-4-yl)-L-leucine], for which the IC50 was below 100 nM. On the same count and under the same terms, the result for `CC(C)c1cc(C(=O)N2CCC(NC(C)(C)C(=O)O)CC2)c(O)cc1O` [Example 97, N-(1-{[2,4-dihydroxy-5-(propan-2-yl)phenyl]carbonyl}piperidin-4-yl)-2-methylalanine] reads below 100 nM. The same measure, in the same setting: the result for `CC(C)c1cc(C(=O)N2CCC(N[C@H](C(=O)O)C(C)C)CC2)c(O)cc1O` [Example 98, N-(1-{[2,4-dihydroxy-5-(propan-2-yl)phenyl]carbonyl}piperidin-4-yl)-L-valine] reads below 100 nM.

As for `CC(C)c1cc(C(=O)N2CCC(N[C@H](C(=O)O)c3ccccc3)CC2)c(O)cc1O` [Example 99, (2S)-[(1-{[2,4-dihydroxy-5-(propan-2-yl)phenyl]carbonyl}piperidin-4-yl)amino](phenyl)ethanoic acid], the IC50 is below 100 nM. On the same count and under the same terms, the result for `CC(C)c1cc(C(=O)N2CCC(N[C@@H](C)C(=O)O)CC2)c(O)cc1O` [Example 100, N-(1-{[2,4-dihydroxy-5-(propan-2-yl)phenyl]carbonyl}piperidin-4-yl)-L-alanine] reads below 100 nM. Still for that read-out and setting: the result for `CC(C)c1cc(C(=O)N2CCC(N[C@@H](Cc3ccccc3)C(=O)O)CC2)c(O)cc1O` [Example 101, N-(1-{[2,4-dihydroxy-5-(propan-2-yl)phenyl]carbonyl}piperidin-4-yl)-L-phenylalanine] reads below 100 nM. Still for that read-out and setting: the result for `CC(C)C[C@H](NC1CCCN(C(=O)c2cc(C(C)C)c(O)cc2O)C1)C(=O)O` (stereo partly drawn) [Example 102, N-(1-{[2,4-dihydroxy-5-(propan-2-yl)phenyl]carbonyl}piperidin-3-yl)-L-leucine] reads 100 to 1000 nM; that for `CC(C)C[C@H](NCC1CCN(C(=O)c2cc(C(C)C)c(O)cc2O)CC1)C(=O)O` [Example 103, N-[(1-{[2,4-dihydroxy-5-(propan-2-yl)phenyl]carbonyl}piperidin-4-yl)methyl]-L-leucine], below 100 nM; that for `CC(C)C[C@H](NCCC1CCN(C(=O)c2cc(C(C)C)c(O)cc2O)CC1)C(=O)O` [Example 104, N-[2-(1-{[2,4-dihydroxy-5-(propan-2-yl)phenyl]carbonyl}piperidin-4-yl)ethyl]-L-leucine], below 100 nM. On to `CCCC[C@H](NC1CCN(C(=O)c2cc(C(C)C)c(O)cc2O)CC1)C(=O)O` [Example 105, N-(1-{[2,4-dihydroxy-5-(propan-2-yl)phenyl]carbonyl}piperidin-4-yl)-L-norleucine], for which the IC50 is below 100 nM. Same read-out and setting: the figure for `CC(C)c1cc(C(=O)N2CCC(CN[C@@H](C)C(=O)O)CC2)c(O)cc1O` [Example 106, N-[(1-{[2,4-dihydroxy-5-(propan-2-yl)phenyl]carbonyl}piperidin-4-yl)methyl]-L-alanine] is below 100 nM; for `CC(C)c1cc(C(=O)N2CCC(CN[C@@H](Cc3ccccc3)C(=O)O)CC2)c(O)cc1O` [Example 107, N-[(1-{[2,4-dihydroxy-5-(propan-2-yl)phenyl]carbonyl}piperidin-4-yl)methyl]-L-phenylalanine] it is below 100 nM. With `CC(C)C[C@@H](NCC1CCN(C(=O)c2cc(C(C)C)c(O)cc2O)CC1)C(=O)O` [Example 108, N-[(1-{[2,4-dihydroxy-5-(propan-2-yl)phenyl]carbonyl}piperidin-4-yl)methyl]-D-leucine], the IC50 is below 100 nM. Same read-out and setting: the figure for `CC(C)C[C@@H](NC1CCN(C(=O)c2cc(C(C)C)c(O)cc2O)CC1)C(=O)O` [Example 109, N-(1-{[2,4-dihydroxy-5-(propan-2-yl)phenyl]carbonyl}piperidin-4-yl)-D-leucine] is above 1000 nM; for `CC(C)c1cc(C(=O)N2CCC(N[C@@H](CC3CCCCC3)C(=O)O)CC2)c(O)cc1O` [Example 110, 3-cyclohexyl-N-(1-{[2,4-dihydroxy-5-(propan-2-yl)phenyl]carbonyl}piperidin-4-yl)-L-alanine] it is below 100 nM. Still for that read-out and setting: the figure for `CC(C)c1cc(C(=O)N2CCC(CCN[C@@H](Cc3ccccc3)C(=O)O)CC2)c(O)cc1O` [Example 111, N-[2-(1-{[2,4-dihydroxy-5-(propan-2-yl)phenyl]carbonyl}piperidin-4-yl)ethyl]-L-phenylalanine] is below 100 nM.

Consider `CC(C)c1cc(C(=O)N2CCC(CN[C@H](C(=O)O)C(C)C)CC2)c(O)cc1O` [Example 112, N-[(1-{[2,4-dihydroxy-5-(propan-2-yl)phenyl]carbonyl}piperidin-4-yl)methyl]-L-valine], for which the IC50 is below 100 nM.

`CC(C)c1cc(C(=O)N2CCC(N[C@H](C(=O)O)C3CCCCC3)CC2)c(O)cc1O` [Example 113]: the IC50 was below 100 nM. On the same count and under the same terms, the result for `CC(C)c1cc(C(=O)N2CCC(CCN[C@@H](COC(C)(C)C)C(=O)O)CC2)c(O)cc1O` [Example 115, O-tert-butyl-N-[2-(1-{[2,4-dihydroxy-5-(propan-2-yl)phenyl]carbonyl}piperidin-4-yl)ethyl]-L-serine] reads below 100 nM; that for `CC(C)c1cc(C(=O)N2CCC(CN[C@H](C(=O)O)C3CCCCC3)CC2)c(O)cc1O` [Example 116, (2S)-cyclohexyl{[(1-{[2,4-dihydroxy-5-(propan-2-yl)phenyl]carbonyl}piperidin-4-yl)methyl]amino}ethanoic acid], below 100 nM. On the same count and under the same terms, the figure for `CC(C)c1cc(C(=O)N2CCC(CNC(C)(C)C(=O)O)CC2)c(O)cc1O` [Example 117, N-[(1-{[2,4-dihydroxy-5-(propan-2-yl)phenyl]carbonyl}piperidin-4-yl)methyl]-2-methylalanine] is below 100 nM.

On to `CC(C)c1cc(C(=O)N2CCC(CN[C@@H](CO)C(=O)O)CC2)c(O)cc1O` [Example 118, N-[(1-{[2,4-dihydroxy-5-(propan-2-yl)phenyl]carbonyl}piperidin-4-yl)methyl]-L-serine], for which the IC50 is below 100 nM. Still for that read-out and setting: the figure for `CC(C)c1cc(C(=O)N2CCC(CN[C@@H](COC(C)(C)C)C(=O)O)CC2)c(O)cc1O` [Example 119] is below 100 nM. Still for that read-out and setting: the result for `CC(C)c1cc(C(=O)N2CCC(CN[C@H](C(=O)O)c3ccccc3)CC2)c(O)cc1O` [Example 120, (2S)-{[(1-{[2,4-dihydroxy-5-(propan-2-yl)phenyl]carbonyl}piperidin-4-yl)methyl]amino}(phenyl)ethanoic acid] reads below 100 nM; that for `CC(C)c1cc(C(=O)N2CCC(CCN[C@H](C(=O)O)C(C)C)CC2)c(O)cc1O` [Example 121, N-[2-(1-{[2,4-dihydroxy-5-(propan-2-yl)phenyl]carbonyl}piperidin-4-yl)ethyl]-L-valine], below 100 nM; that for `CC(C)c1cc(C(=O)N2CCC(N[C@@H](COC(C)(C)C)C(=O)O)CC2)c(O)cc1O` [Example 122, O-tert-butyl-N-(1-{[2,4-dihydroxy-5-(propan-2-yl)phenyl]carbonyl}piperidin-4-yl)-L-serine], below 100 nM.

In the case of `CC(C)c1cc(C(=O)N2CCC(CCN[C@H](C(=O)O)C3CCCCC3)CC2)c(O)cc1O` [Example 123, (2S)-cyclohexyl{[2-(1-{[2,4-dihydroxy-5-(propan-2-yl)phenyl]carbonyl}piperidin-4-yl)ethyl]amino}ethanoic acid], the IC50 was below 100 nM. As for `CC(C)c1cc(C(=O)N2CCC(CCN[C@H](C(=O)O)c3ccccc3)CC2)c(O)cc1O` [Example 124, (2S)-{[2-(1-{[2,4-dihydroxy-5-(propan-2-yl)phenyl]carbonyl}piperidin-4-yl)ethyl]amino}(phenyl)ethanoic acid], the IC50 is below 100 nM. Regarding `CC(C)c1cc(C(=O)N2CCC(N[C@@H](CO)C(=O)O)CC2)c(O)cc1O` [Example 125, N-(1-{[2,4-dihydroxy-5-(propan-2-yl)phenyl]carbonyl}piperidin-4-yl)-L-serine], the IC50 was below 100 nM. On the same count and under the same terms, the figure for “N-[2-(1-{[2,4-dihydroxy-5-(propan-2-yl)phenyl]carbonyl}piperidin-4-yl)ethyl]-2-methylalanine [Example 114]” is below 100 nM; for “N-{3-[(1-{[2,4-dihydroxy-5-(propan-2-yl)phenyl]carbonyl}piperidin-4-yl)amino]propyl}-L-leucine [Example 127]” it is below 100 nM; for “tert-butyl N-[2-(1-{[2,4-dihydroxy-5-(propan-2-yl)phenyl]carbonyl}piperidin-4-yl)ethyl]-L-serinate [Example 52]” it is below 100 nM.

The same assay, now with this note: in words, relative to non-ester parent CHR-7310.
With `CC(C)c1cc(C(=O)N2CCC(N[C@@H](COC(C)(C)C)C(=O)O)CC2)c(O)cc1O` [Example 122, O-tert-butyl-N-(1-{[2,4-dihydroxy-5-(propan-2-yl)phenyl]carbonyl}piperidin-4-yl)-L-serine], the “IC50 in the Hsp90 binding assay compared with CHR-7310” value is “similar”.

(Values after patent publication US9321718B2 (CHROMA THERAPEUTICS LTD., priority 2010, dated 2016).)
